The experiment has as its target MCH receptor (Homo sapiens, UniProt Q99705). Put plainly: High throughput functional screening FLIPR/FDSS6000: inhibition of MCH-evoked intracellular Ca2+ changes. The experiment is classed as cell-based. The settings on record: class by percent of control at 10^-7 M or by IC50; read-out: class. The method, boiled down:
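Fluo4 fluorescence (Ex 488 nm, Em 530 nm) tracked MCH-evoked [Ca2+]i transients over 290 s by FLIPR or FDSS. Cells carried a constitutively active, non-endogenous receptor version. Compounds were added 3 min before a 50 nM MCH challenge.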

Regarding `CN(C)c1nc(N[C@H]2CC[C@@H](NC(=O)Nc3ccccc3Br)CC2)nc2ccccc12` [compound 10, N-(2-bromophenyl)-N′-(cis-4-{[4-(dimethylamino)quinazolin-2-yl]amino}cyclohexyl)urea], the IC50 was less than 50 nM. As to `CN(C)c1nc(N[C@H]2CC[C@@H](NC(=O)Nc3ccccc3-c3ccccc3)CC2)nc2ccccc12` [compound 11, N-biphenyl-2-yl-N′-(cis-4-{[4-(dimethylamino)quinazolin-2-yl]amino}cyclohexyl)urea], the IC50 is less than 50 nM. With `CN(C)c1nc(N[C@H]2CC[C@@H](NC(=O)Nc3ccc(Br)cc3)CC2)nc2ccccc12` [compound 12, N-(4-bromophenyl)-N′-(cis-4-{[4-(dimethylamino)quinazolin-2-yl]amino}cyclohexyl)urea], the IC50 lay within 50 to 200 nM. As for `CCCCNC(=O)N[C@H]1CC[C@@H](Nc2nc(N(C)C)c3ccccc3n2)CC1` [compound 13, N-butyl-N′-(cis-4-{[4-(dimethylamino)quinazolin-2-yl]amino}cyclohexyl)urea], the figure is less than 50 nM. As for `CN(C)c1nc(N[C@H]2CC[C@@H](NC(=O)Nc3cccc(Cl)c3)CC2)nc2ccccc12` [compound 14], the figure is more than 200 nM; as for `CN(C)c1nc(N[C@H]2CC[C@@H](NC(=O)Nc3ccc(Cl)cc3)CC2)nc2ccccc12` [compound 15], more than 200 nM.

In the case of `CN(C)c1nc(N[C@H]2CC[C@@H](NC(=O)NC3CCCCC3)CC2)nc2ccccc12` [compound 16, N-cyclohexyl-N′-(cis-4-{[4-(dimethylamino)quinazolin-2-yl]amino}cyclohexyl)urea], the IC50 lay in the range of 50 to 200 nM.

As to `CN(C)c1nc(N[C@H]2CC[C@@H](NC(=O)Nc3cccc(C#N)c3)CC2)nc2ccccc12` [compound 17], the IC50 is more than 200 nM. To `CN(C)c1nc(N[C@H]2CC[C@@H](NC(=O)Nc3ccccc3Cl)CC2)nc2ccccc12` [compound 18, N-(2-chlorophenyl)-N′-(cis-4-{[4-(dimethylamino)quinazolin-2-yl]amino}cyclohexyl)urea] belongs less than 50 nM. Consider `Cc1cccc(C)c1NC(=O)N[C@H]1CC[C@@H](Nc2nc(N(C)C)c3ccccc3n2)CC1` [compound 19, N-(cis-4-{[4-(dimethylamino)quinazolin-2-yl]amino}cyclohexyl)-N′-(2,6-dimethylphenyl)urea], for which the IC50 is less than 50 nM.

For the compound `CN(C)c1nc(N[C@H]2CC[C@@H](NC(=O)Nc3ccc(Cl)c(Cl)c3)CC2)nc2ccccc12` [compound 20], the IC50 is more than 200 nM. As for `CN(C)c1nc(N[C@H]2CC[C@@H](NC(=O)Nc3ccc(F)cc3F)CC2)nc2ccccc12` [compound 21, N-(2,4-difluorophenyl)-N′-(cis-4-{[4-(dimethylamino)quinazolin-2-yl]amino}cyclohexyl)urea], the figure is less than 50 nM; as for `CN(C)c1nc(N[C@H]2CC[C@@H](NC(=O)Nc3ccc(Cl)cc3Cl)CC2)nc2ccccc12` [compound 22, N-(2,4-dichlorophenyl)-N′-(cis-4-{[4-(dimethylamino)quinazolin-2-yl]amino}cyclohexyl)urea], 50 to 200 nM. In the case of `CN(C)c1nc(N[C@H]2CC[C@@H](NC(=O)Nc3cc(Cl)cc(Cl)c3)CC2)nc2ccccc12` [compound 23], the IC50 was more than 200 nM. As for `CN(C)c1nc(N[C@H]2CC[C@@H](NC(=O)Nc3cccc(Cl)c3Cl)CC2)nc2ccccc12` [compound 24], the figure is more than 200 nM. With `CN(C)c1nc(N[C@H]2CC[C@@H](NC(=O)Nc3c(F)cccc3F)CC2)nc2ccccc12` [compound 25], the IC50 was more than 200 nM.

For the compound `CN(C)c1nc(N[C@H]2CC[C@@H](NC(=O)Nc3cc(Cl)ccc3Cl)CC2)nc2ccccc12` [compound 26], the IC50 is more than 200 nM. Turning to `Cc1cccc(NC(=O)N[C@H]2CC[C@@H](Nc3nc(N(C)C)c4ccccc4n3)CC2)c1C` [compound 27, N-(cis-4-{[4-(dimethylamino)quinazolin-2-yl]amino}cyclohexyl)-N′-(2,3-dimethylphenyl)urea], the IC50 is less than 50 nM. For `CCOC(=O)CNC(=O)N[C@H]1CC[C@@H](Nc2nc(N(C)C)c3ccccc3n2)CC1` [compound 28], the IC50 is more than 200 nM. As for `CCOC(=O)c1cccc(NC(=O)N[C@H]2CC[C@@H](Nc3nc(N(C)C)c4ccccc4n3)CC2)c1` [compound 29, ethyl 3-({[(cis-4-{[4-(dimethylamino)quinazolin-2-yl]amino}cyclohexyl)amino]carbonyl}amino)benzoate], the figure is less than 50 nM.

As to `CCOC(=O)c1ccc(NC(=O)N[C@H]2CC[C@@H](Nc3nc(N(C)C)c4ccccc4n3)CC2)cc1` [compound 30, ethyl 4-({[(cis-4-{[4-(dimethylamino)quinazolin-2-yl]amino}cyclohexyl)amino]carbonyl}amino)benzoate], the IC50 is 50 to 200 nM. As for `CCc1ccc(NC(=O)N[C@H]2CC[C@@H](Nc3nc(N(C)C)c4ccccc4n3)CC2)cc1` [compound 31, N-(cis-4-{[4-(dimethylamino)quinazolin-2-yl]amino}cyclohexyl)-N′-(4-ethylphenyl)urea], the IC50 lay within 50 to 200 nM. Take `CCNC(=O)N[C@H]1CC[C@@H](Nc2nc(N(C)C)c3ccccc3n2)CC1` [compound 32]: the IC50 is more than 200 nM. Take `CCc1cccc(C)c1NC(=O)N[C@H]1CC[C@@H](Nc2nc(N(C)C)c3ccccc3n2)CC1` [compound 33, N-(cis-4-{[4-(dimethylamino)quinazolin-2-yl]amino}cyclohexyl)-N′-(2-ethyl-6-methylphenyl)urea]: the IC50 was less than 50 nM. To `CCOC(=O)C(CC(C)C)NC(=O)NC1CCC(Nc2nc(N(C)C)c3ccccc3n2)CC1` (stereo not drawn) [compound 34, ethyl N-{[(cis-4-{[4-(dimethylamino)quinazolin-2-yl]amino}cyclohexyl)amino]carbonyl}lucinate] belongs less than 50 nM. For `CN(C)c1nc(N[C@H]2CC[C@@H](NC(=O)Nc3ccc(F)c([N+](=O)[O-])c3)CC2)nc2ccccc12` [compound 35], the IC50 is more than 200 nM. As for `CN(C)c1nc(N[C@H]2CC[C@@H](NC(=O)Nc3ccc(F)cc3)CC2)nc2ccccc12` [compound 36, N-(cis-4-{[4-(dimethylamino)quinazolin-2-yl]amino}cyclohexyl)-N′-(4-fluorophenyl)urea], the IC50 is less than 50 nM. Consider `CN(C)c1nc(N[C@H]2CC[C@@H](NC(=O)Nc3cccc(F)c3)CC2)nc2ccccc12` [compound 37], for which the IC50 is more than 200 nM.

In the case of `CN(C)c1nc(N[C@H]2CC[C@@H](NC(=O)Nc3ccccc3F)CC2)nc2ccccc12` [compound 38], the IC50 is more than 200 nM. As for `CC(C)c1ccc(NC(=O)N[C@H]2CC[C@@H](Nc3nc(N(C)C)c4ccccc4n3)CC2)cc1` [compound 39], the figure is more than 200 nM; as for `C=C(C)c1cccc(C(C)(C)NC(=O)N[C@H]2CC[C@@H](Nc3nc(N(C)C)c4ccccc4n3)CC2)c1` [compound 40, N-(cis-4-{[4-(dimethylamino)quinazolin-2-yl]amino}cyclohexyl)-N′-[1-(3-isopropenylphenyl)-1-methylethyl]urea], less than 50 nM; as for `CC(C)NC(=O)N[C@H]1CC[C@@H](Nc2nc(N(C)C)c3ccccc3n2)CC1` [compound 42], more than 200 nM. Turning to `COc1ccc(NC(=O)N[C@H]2CC[C@@H](Nc3nc(N(C)C)c4ccccc4n3)CC2)cc1` [compound 43, N-(cis-4-{[4-(dimethylamino)quinazolin-2-yl]amino}cyclohexyl)-N′-(4-methoxyphenyl)urea], the IC50 is 50 to 200 nM. As for `Cc1ccc(NC(=O)N[C@H]2CC[C@@H](Nc3nc(N(C)C)c4ccccc4n3)CC2)c([N+](=O)[O-])c1` [compound 44], the IC50 is more than 200 nM. In the case of `COc1ccccc1NC(=O)N[C@H]1CC[C@@H](Nc2nc(N(C)C)c3ccccc3n2)CC1` [compound 45, N-(cis-4-{[4-(dimethylamino)quinazolin-2-yl]amino}cyclohexyl)-N′-(2-methoxyphenyl)urea], the IC50 lay within 50 to 200 nM. Take `COc1cccc(NC(=O)N[C@H]2CC[C@@H](Nc3nc(N(C)C)c4ccccc4n3)CC2)c1` [compound 46, N-(cis-4-{[4-(dimethylamino)quinazolin-2-yl]amino}cyclohexyl)-N′-(3-methoxyphenyl)urea]: the IC50 fell in the range of 50 to 200 nM. As to `CSc1ccc(NC(=O)N[C@H]2CC[C@@H](Nc3nc(N(C)C)c4ccccc4n3)CC2)cc1` [compound 47, N-(cis-4-{[4-(dimethylamino)quinazolin-2-yl]amino}cyclohexyl)-N′-[4-(methylthio)phenyl]urea], the IC50 is less than 50 nM. As for `COc1ccc(CNC(=O)N[C@H]2CC[C@@H](Nc3nc(N(C)C)c4ccccc4n3)CC2)cc1` [compound 48, N-(cis-4-{[4-(dimethylamino)quinazolin-2-yl]amino}cyclohexyl)-N′-(4-methoxybenzyl)urea], the figure is 50 to 200 nM. Regarding `Cc1cccc(CNC(=O)N[C@H]2CC[C@@H](Nc3nc(N(C)C)c4ccccc4n3)CC2)c1` [compound 49], the IC50 was more than 200 nM. Consider `CN(C)c1nc(N[C@H]2CC[C@@H](NC(=O)Nc3cccc4ccccc34)CC2)nc2ccccc12` [compound 50, N-(cis-4-{[4-(dimethylamino)quinazolin-2-yl]amino}cyclohexyl)-N′-1-napthylurea], for which the IC50 is less than 50 nM. As for `CN(C)c1nc(N[C@H]2CC[C@@H](NC(=O)NC3C[C@H]3c3ccccc3)CC2)nc2ccccc12` (stereo partly drawn) [compound 51, N-(cis-4-{[4-(dimethylamino)quinazolin-2-yl]amino}cyclohexyl)-N′-[(2S)-2-phenylcyclopropyl]urea], the IC50 is less than 50 nM.

With `CN(C)c1nc(N[C@H]2CC[C@@H](NC(=O)Nc3ccccc3)CC2)nc2ccccc12` [compound 52, N-(cis-4-{[4-(dimethylamino)quinazolin-2-yl]amino}cyclohexyl)-N′-phenylurea], the IC50 is 50 to 200 nM. As to `CN(C)c1nc(N[C@H]2CC[C@@H](NC(=O)Nc3ccc(Oc4ccccc4)cc3)CC2)nc2ccccc12` [compound 53, N-(cis-4-{[4-(dimethylamino)quinazolin-2-yl]amino}cyclohexyl)-N′-(4-phenoxyphenyl)urea], the IC50 was less than 50 nM.

The record behind these values is US20070010671A1, “Novel quinazoline derivatives and methods of treatment related to the use thereof” (priority 2003, published 2007).
